Results: ChEMBL document CHEMBL1135447, “Design and synthesis of tricyclic compounds with enone functionalities in rings A and C: a novel class of highly active inhibitors of nitric oxide production in mouse macrophages” (J Med Chem, 2002)

Organism: Mus musculus
Assay: Inhibitory activity against nitric oxide production induced by interferon-gamma (IFN-gamma) in mouse macrophages
Type: functional
Conditions: not given

| SMILES | IC50 [nM] |
| --- | --- |
| CC1(C)C(=O)C(C#N)=C[C@]2(C)C3=CC(=O)C=C[C@]3(C)CC[C@@H]12 (stereo in doubt; (+)-6) | 58 |
| CC1(C)C(=O)C(C#N)=C[C@]2(C)C3=CC(=O)C=C[C@]3(C)CC[C@@H]12 (stereo in doubt; (-)-6) | 64 |

Same assay, conditions: Mus musculus

| SMILES | IC50 [nM] |
| --- | --- |
| CC1(C)C(=O)C(C#N)=C[C@]2(C)C3=CC(=O)C=C[C@]3(C)CC[C@@H]12 (racemic) | 61 |
| CC(=O)O[C@@H]1CCC=C2[C@@]3(C)C=C(C#N)C(=O)C(C)(C)[C@@H]3CC[C@]21C (racemic) | 480 |
| CC1(C)CC[C@]2(C(=O)O)CC[C@]3(C)[C@H](C(=O)C=C4[C@@]5(C)C=C(C#N)C(=O)C(C)(C)[C@@H]5CC[C@]43C)[C@@H]2C1 [BARDOXOLONE] | 0.5 |
| COC(=O)C1=C[C@]2(C)CC[C@H]3C(C)(C)C(=O)C(C#N)=C[C@]3(C)C2=CC1=O (racemic) | 91 |
| CC1(C)C(=O)C(C#N)=C[C@]2(C)C3=CC(=O)C(C#N)=C[C@]3(C)CC[C@@H]12 (racemic) | 2.1 |
| CC1(C)C(=O)C(C#N)=C[C@]2(C)C3=CC(=O)C(C(N)=O)=C[C@]3(C)CC[C@@H]12 (racemic) | 61 |
| CC1(C)C(=O)C(C#N)=C[C@]2(C)C3=CC(=O)C[C@@H](O)[C@]3(C)CC[C@@H]12 (racemic) | 75 |
| CC1(C)C(=O)C(C#N)=C[C@]2(C)C3=CC(=O)C(C(=O)O)=C[C@]3(C)CC[C@@H]12 (racemic) | 1600 |
| CC1(C)CC[C@]2(C(=O)O)CC[C@]3(C)C(=CC[C@@H]4[C@@]5(C)CC[C@H](O)C(C)(C)[C@@H]5CC[C@]43C)[C@@H]2C1 [OLEANOLIC_ACID] | > 40000 |
| CC(=O)O[C@@H]1CC(=O)C=C2[C@@]3(C)C=C(C#N)C(=O)C(C)(C)[C@@H]3CC[C@]21C (racemic) | 53 |
| CC1(C)C(=O)C(C#N)=C[C@]2(C)C3=CCC[C@@H](O)[C@]3(C)CC[C@@H]12 (racemic) | 310 |
